Results published in patent US11819533B2, “Compositions and methods for the treatment of fungal infections” (Cidara Therapeutics, Inc., priority 2017, dated 2023).
Starred links: 1 amine or outer side, 2 acyl side, 3 side chain; linkers in the order of their positions; H or OH if unused. Positions of bridges follow the written chain, without caps; N, C: chain ends. Non-standard residues stand in square brackets, D forms with d. Residues, ends and D or L forms follow the SMILES beside them. *: point of attachment. Orn(4R-OH,5R-OCH2CH2NMe3+) = C[N+](C)(C)CCO[C@@H](N[*:3])[C@H](O)C[C@H](N[*:1])C(=O)[*:2]; pTerphenylCO(4''-OnC5H11) = CCCCCOc1ccc(-c2ccc(-c3ccc(C(=O)*)cc3)cc2)cc1; hTyr(3S-OH,4S-OH) = N[C@H](C(=O)O)[C@H](O)[C@@H](O)c1ccc(O)cc1; Pro(3S-OH,4S-Me) = C[C@H]1CN[C@H](C(=O)O)[C@H]1O; Hyp = O=C(O)[C@@H]1C[C@@H](O)CN1

Assays:
[1] = Dropwise addition of CD101 acetate 4 mg/mL solutions to 0.9% saline solution or PBS buffer, observed for drug insolubility; type: physicochemical
Experimental: CD101 acetate 20 mg/kg dose was prepared in w/w in 5% dextrose solution (CD101 acetate at 4 mg/mL solution) for the following solutions using the salt to free base correction factor of 0.8784 for CD101 acetate: […]
0.5% w/w Tween 80 used. The pH of the solution is 5.21 (22.8 mg CD101 acetate into 5 mL 5% Dextrose with 0.5% w/w Tween 80 (0.1 g Tween 80+19.9 g 5% Dextrose))
1.0% w/w Tween 80 used. The pH of the solutions is 5.27 (22.9 mg CD101 acetate into 5 mL 5% Dextrose with 1.0% w/w Tween 80 (0.2 g Tween 80+19.8 g 5% Dextrose))
2.5% w/w Tween 80 used. The pH of the solutions is 5.29 (22.7 mg CD101 acetate into 5 mL 5% Dextrose with 2.5% w/w Tween 80 (0.5 g Tween 80+[…] 5% Dextrose))
1.0% w/w Tween 80 used. The pH of the solution was adjusted to 6.64 using 0.1 N NaOH. (22.9 mg CD101 acetate into 5 mL 5% Dextrose with 1.0% w/w Tween 80 (0.2 g Tween 80+19.8 g 5% Dextrose))

[2] = PBS drop test of CD101 IV formulations (Example 4); type: physicochemical; conditions: 2 mg/mL in 0.50% Tween 80, 0.76% mannitol, 0.125% sodium lactate in 3.5% dextrose solution, pH ~5.5; 0.25 mL into 1 mL PBS
Experimental: Solubility of CD101-containing formulations with different percentages of Tween 80 (also referred to as polysorbate 80) was evaluated in a “PBS drop test.” This involved preparing a known concentration of CD101 in a formulation and injecting the formulation into PBS to visually examine for precipitation. This test was used to assess if a CD101-containing formulation would remain soluble in blood during IV infusions.
(1) 1.25% Tween 80, 5% mannitol, 0.3% glacial acetic acid, pH ˜4.5
(2) 0.50% Tween 80, 0.76% mannitol, 0.125% sodium lactate in 3.5% dextrose solution, pH ˜5.5
Different concentrations of CD101 acetate were prepared in vehicles (1) and (2) and tested for solubility in the PBS drop test.
Add dropwise the formulated solution into PBS solution (1:4 dilution). Visually observe the resulting solution upon addition for any precipitation.

[3] = 4 mg/mL in 5% dextrose and 1.0% Tween 80, adjusted to 6.64 pH using 0.1N NaOH
[4] = 4 mg/mL in 5% dextrose and 1.0% Tween 80, pH 5.3
[5] = 4 mg/mL in 5% dextrose and 2.5% Tween 80, pH 5.3

CCCCCOc1ccc(-c2ccc(-c3ccc(C(=O)N[C@H]4C[C@@H](O)[C@@H](OCC[N+](C)(C)C)NC(=O)[C@@H]5[C@@H](O)[C@@H](C)CN5C(=O)[C@H]([C@@H](C)O)NC(=O)[C@H]([C@H](O)[C@@H](O)c5ccc(O)cc5)NC(=O)[C@@H]5C[C@@H](O)CN5C(=O)[C@H]([C@@H](C)O)NC4=O)cc3)cc2)cc1 [CD101 acetate] ({pTerphenylCO(4''-OnC5H11)}-[Orn(4R-OH,5R-OCH2CH2NMe3+)]T[Hyp][hTyr(3S-OH,4S-OH)]T[Pro(3S-OH,4S-Me)]; lactam 1-C)
at least 1 hour: Time the formulated solution remained soluble in PBS [2]
Clear: Appearance after 1.5 mL added to (A) 5 mL 0.9% saline solution [1, 3] | Appearance after 1.5 mL added to (B) 5 mL PBS buffer [1, 3] | Appearance after 1.5 mL added to (A) 5 mL 0.9% saline solution [1, 4] | Appearance after 1.5 mL added to (B) 5 mL PBS buffer [1, 4] | Appearance after 1.5 mL added to (A) 5 mL 0.9% saline solution [1, 5] | Appearance after 1.5 mL added to (B) 5 mL PBS buffer [1, 5]
